pIC50: −log10 of the molar value. Read-outs that look alike come from different tables or passages of the source.
Assays:
Cbl-b (aa36-427) = molecular target: T1, Cbl-b (aa36-427) (Homo sapiens, UniProt Q13191); experiment: Co-expressed Cbl-b with BirA biochemical assay (CBLB/E2-Ub binding, HTRF)
T1 construct: Cbl-b (aa36-427, in-house); made in house
Description: (§1) The assay in the absence of a Cbl-b/Cbl inhibitor, where phosphorylation of Cbl-b/Cbl by the Src kinase allows UbcH5B-Ub to bind to Cbl-b/Cbl and brings the Bodipy-Fluorescein tagged ubiquitin in proximity to the streptavidin-terbium bound to the N-terminal biotinylated Avi-tagged Cbl-b/Cbl. […] The lack of a FRET signal indicates Cbl-b/Cbl is inhibited by the Cbl-b/Cbl inhibitor.

Cbl (aa49-434) = molecular target: T2, Cbl (aa49-434) (Homo sapiens, UniProt P22681); experiment: Co-expressed Cbl with BirA biochemical assay (CBL/E2-Ub binding, HTRF); settings: 0.6 nM Cbl co-expressed with BirA, read-out: co-express CBL/E2-Ub-binding assay IC50
T2 construct: Cbl (aa49-434, in-house); made in house
T2 sequence (P22681 49-434): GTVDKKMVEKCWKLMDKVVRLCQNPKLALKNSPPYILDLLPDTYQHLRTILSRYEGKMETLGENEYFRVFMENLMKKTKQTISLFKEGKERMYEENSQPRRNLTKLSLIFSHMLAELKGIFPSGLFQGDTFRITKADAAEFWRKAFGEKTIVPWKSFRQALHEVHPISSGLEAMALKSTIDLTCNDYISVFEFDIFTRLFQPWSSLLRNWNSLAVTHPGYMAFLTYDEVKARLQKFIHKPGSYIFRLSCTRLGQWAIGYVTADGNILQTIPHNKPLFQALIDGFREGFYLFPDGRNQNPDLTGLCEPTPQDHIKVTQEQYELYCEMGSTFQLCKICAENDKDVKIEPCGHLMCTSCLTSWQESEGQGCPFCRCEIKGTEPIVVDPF
Description: as §1

[1] = 0.6 nM Cbl-b co-expressed with BirA, HTRF, read-out: co-express CBLB/E2-Ub-binding assay IC50

T1 sequence (Q13191 36-427): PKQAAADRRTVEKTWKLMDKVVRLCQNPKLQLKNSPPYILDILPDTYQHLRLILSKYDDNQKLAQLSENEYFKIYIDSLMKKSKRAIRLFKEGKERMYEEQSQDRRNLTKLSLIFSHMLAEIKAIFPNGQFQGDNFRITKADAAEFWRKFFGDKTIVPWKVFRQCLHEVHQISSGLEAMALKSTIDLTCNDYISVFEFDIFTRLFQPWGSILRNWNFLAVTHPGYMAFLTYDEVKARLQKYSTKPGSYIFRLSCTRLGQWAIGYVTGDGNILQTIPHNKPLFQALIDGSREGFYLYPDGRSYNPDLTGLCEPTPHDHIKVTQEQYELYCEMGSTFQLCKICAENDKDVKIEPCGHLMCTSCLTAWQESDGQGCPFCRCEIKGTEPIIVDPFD

SMILES | pIC50 (Cbl-b (aa36-427); [1]) | pIC50 (Cbl (aa49-434)) | pIC50 (Cbl-b (aa36-427))
CC(C)CNCc1cc(C(=O)Nc2cccc([C@]3(c4nncn4C)C[C@@H](C)C3)c2)c2nccn2c1 [Compound A18, 6-((isobutylamino)methyl)-N-(3-((1s, 3s)-3-methyl-1-(4-methyl-4H-1,2,4-triazol-3-yl)cyclobutyl)phenyl)imidazo[1,2-a]pyridine-8-carboxamide] | 8.96 | 8.22 | 
Cn1cnnc1CC1(c2cccc(NC(=O)c3cc(CNC4CCCCC4)cn4ccnc34)c2)COC1 [Compound A9, 6-((cyclohexylamino)methyl)-N-(3-(3-((4-methyl-4H-1,2,4-triazol-3-yl)methyl)oxetan-3-yl)phenyl)imidazo[1,2-a]pyridine-8-carboxamide] | 7.89 | 7.61 | 
C[C@H](NCc1cc(C(=O)Nc2cccc([C@]3(c4nncn4C)C[C@@H](C)C3)c2)c2nccn2c1)C1CCC1 [Compound A70, 6-((((S)-1-cyclobutylethyl)amino)methyl)-N-(3-((1s,3R)-3-methyl-1-(4-methyl-4H-1,2,4-triazol-3-yl)cyclobutyl)phenyl)imidazo[1,2-a]pyridine-8-carboxamide] | 8.96 | 8.39 | 
C[C@H](NCc1cc(C(=O)Nc2cccc([C@]3(c4nncn4C)C[C@@H](CC#N)C3)c2)c2nccn2c1)C1CCCC1 [Compound A31, N-(3-((1s,3R)-3-(cyanomethyl)-1-(4-methyl-4H-1,2,4-triazol-3-yl)cyclobutyl)phenyl)-6-((((S)-1-cyclopentylethyl)amino)methyl)imidazo[1,2-a]pyridine-8-carboxamide] | 9.15 | 8.89 | 
C[C@H]1CCCN(Cc2cc(C(=O)Nc3cccc([C@]4(Cc5nncn5C)C[C@H](C#N)C4)c3)nc3c2CCC3(C)C)C1 [Compound C18, N-(3-((1s,3R)-3-cyano-1-((4-methyl-4H-1,2,4-triazol-3-yl)methyl)cyclobutyl)phenyl)-7,7-dimethyl-4-(((S)-3-methylpiperidin-1-yl)methyl)-6,7-dihydro-5H-cyclopenta[b]pyridine-2-carboxamide] | 8.85 | 8.51 | 
C[C@H](NCc1cc(C(=O)Nc2cncc([C@]3(c4nncn4C)C[C@@H](C)C3)c2)c2ncc(Cl)n2c1)C1CC1 [Compound A77, 3-chloro-6-((((S)-1-cyclopropylethyl)amino)methyl)-N-(5-((1s,3R)-3-methyl-1-(4-methyl-4H-1,2,4-triazol-3-yl)cyclobutyl)pyridin-3-yl)imidazo[1,2-a]pyridine-8-carboxamide] | 9.40 | 8.92 | 
C[C@H](NCc1cc(C(=O)Nc2cccc([C@]3(c4nncn4C)C[C@@H](C)C3)c2)nc2c1CCC2(F)F)C1CC1 [Compound C60, 4-((((S)-1-cyclopropylethyl)amino)methyl)-7,7-difluoro-N-(3-((1s,3R)-3-methyl-1-(4-methyl-4H-1,2,4-triazol-3-yl)cyclobutyl)phenyl)-6,7-dihydro-5H-cyclopenta[b]pyridine-2-carboxamide] | 8.96 | 8.04 | 
C[C@H](NCc1cc(C(=O)Nc2cncc([C@]3(c4nncn4C)C[C@@H](C)C3)c2)c2ncc(F)n2c1)C1CCC1 [Compound A50, 6-({[(1S)-1-cyclobutylethyl]amino}methyl)-3-fluoro-N-{5-[(1r, 3s)-3-methyl-1-(4-methyl-1,2,4-triazol-3-yl)cyclobutyl]pyridin-3-yl}imidazo[1,2-a]pyridine-8-carboxamide] | 9.05 | 8.96 | 
CC(C)CNCc1cc(C(=O)Nc2cncc([C@]3(c4nncn4C)C[C@@H](C)C3)c2)nc2c(Cl)c[nH]c12 [Compound B55, 3-chloro-7-((isobutylamino)methyl)-N-(5-((1s, 3s)-3-methyl-1-(4-methyl-4H-1,2,4-triazol-3-yl)cyclobutyl)pyridin-3-yl)-1H-pyrrolo[3,2-b]pyridine-5-carboxamide] |  | 7.85 | 8.80
C[C@H]1CCCN(Cc2cc(C(=O)Nc3cccc([C@]4(c5nncn5C)C[C@@H](CC#N)C4)c3)n3ncc(Cl)c3c2)C1 [Compound A21, 3-chloro-N-(3-((1s,3R)-3-(cyanomethyl)-1-(4-methyl-4H-1,2,4-triazol-3-yl)cyclobutyl)phenyl)-5-(((S)-3-methylpiperidin-1-yl)methyl)pyrazolo[1,5-a]pyridine-7-carboxamide] | 8.54 | 7.51 | 
Cn1ccc2c(CNCC3CCC3)cc(C(=O)Nc3cccc([C@]4(c5nncn5C)C[C@@H](C)C4)c3)nc21 [Compound B45, 4-(((cyclobutylmethyl)amino)methyl)-1-methyl-N-(3-((1s, 3s)-3-methyl-1-(4-methyl-4H-1,2,4-triazol-3-yl)cyclobutyl)phenyl)-1H-pyrrolo[2,3-b]pyridine-6-carboxamide] | 8.77 | 7.78 | 
C[C@H](NCc1cc(C(=O)Nc2cncc([C@]3(c4nncn4C)C[C@@H](C)C3)c2)nc2sccc12)C1CCC1 [Compound B42, 4-({[(1S)-1-cyclobutylethyl]amino}methyl)-N-{5-[(1r, 3s)-3-methyl-1-(4-methyl-1,2,4-triazol-3-yl)cyclobutyl]pyridin-3-yl}thieno[2,3-b]pyridine-6-carboxamide] | 8.68 | 8.33 | 
Cn1cnnc1[C@]1(c2cccc(NC(=O)c3cc(CNCC4CCC(F)(F)CC4)c4c(n3)C(C)(C)CO4)c2)C[C@H](CC#N)C1 [Compound C20, N-(3-((1s, 3s)-3-(cyanomethyl)-1-(4-methyl-4H-1,2,4-triazol-3-yl)cyclobutyl)phenyl)-7-((((4,4-difluorocyclohexyl)methyl)amino)methyl)-3,3-dimethyl-2,3-dihydrofuro[3,2-b]pyridine-5-carboxamide] | 8.16 | 7.10 | 
C[C@H]1CCCN(Cc2cc(C(=O)Nc3cccc([C@]4(c5nncn5C)C[C@@H](CC#N)C4)c3)c3nc(F)cn3c2)C1 [Compound A13, N-(3-((1s,3R)-3-(cyanomethyl)-1-(4-methyl-4H-1,2,4-triazol-3-yl)cyclobutyl)phenyl)-2-fluoro-6-(((S)-3-methylpiperidin-1-yl)methyl)imidazo[1,2-a]pyridine-8-carboxamide] | 8.21 | 7.33 | 
C[C@H](NCc1cc(C(=O)Nc2cccc([C@]3(c4nncn4C)C[C@@H](CC#N)C3)c2)nc2c1CCC2(F)F)C1CC1 [Compound C43, N-(3-((1s,3R)-3-(cyanomethyl)-1-(4-methyl-4H-1,2,4-triazol-3-yl)cyclobutyl)phenyl)-4-((((S)-1-cyclopropylethyl)amino)methyl)-7,7-difluoro-6,7-dihydro-5H-cyclopenta[b]pyridine-2-carboxamide] | 8.89 | 8.00 | 
Cn1cnnc1[C@]1(c2cccc(NC(=O)c3cc(CNCC4CCC(F)(F)CC4)c4[nH]ccc4n3)c2)C[C@H](CC#N)C1 [Compound B22, N-(3-((1s, 3s)-3-(cyanomethyl)-1-(4-methyl-4H-1,2,4-triazol-3-yl)cyclobutyl)phenyl)-7-((((4,4-difluorocyclohexyl)methyl)amino)methyl)-1H-pyrrolo[3,2-b]pyridine-5-carboxamide] | 8.40 | 7.71 | 
Cn1cnnc1[C@]1(c2cncc(NC(=O)c3cc(CNC4(C)CCC4)cn4ccnc34)c2)C[C@H](C)C1 [Compound A81, N-(5-((1s, 3s)-3-methyl-1-(4-methyl-4H-1,2,4-triazol-3-yl)cyclobutyl)pyridin-3-yl)-6-(((1-methylcyclobutyl)amino)methyl)imidazo[1,2-a]pyridine-8-carboxamide] | 8.74 | 8.09 | 
Cn1cnnc1[C@]1(c2cccc(NC(=O)c3cc(CNC4(C)CC4)cc4c(F)cnn34)c2)C[C@H](CC#N)C1 [Compound A94, N-(3-((1s, 3s)-3-(cyanomethyl)-1-(4-methyl-4H-1,2,4-triazol-3-yl)cyclobutyl)phenyl)-3-fluoro-5-(((1-methylcyclopropyl)amino)methyl)pyrazolo[1,5-a]pyridine-7-carboxamide] | 9.30 | 8.23 | 
Cn1cnnc1[C@]1(c2cccc(NC(=O)c3cc(CNC4(C)CCC4)c4c(n3)C(C)(C)CC4)c2)C[C@H](CC#N)C1 [Compound C40, N-(3-((1s, 3s)-3-(cyanomethyl)-1-(4-methyl-4H-1,2,4-triazol-3-yl)cyclobutyl)phenyl)-7,7-dimethyl-4-(((1-methylcyclobutyl)amino)methyl)-6,7-dihydro-5H-cyclopenta[b]pyridine-2-carboxamide] | 8.60 | 7.94 | 
Cn1cnnc1[C@]1(c2cccc(NC(=O)c3cc(CN[C@H]4CCC(F)(F)C4)c4[nH]ccc4n3)c2)C[C@H](CC#N)C1 [Compound B17, N-(3-((1s,3S)-3-(cyanomethyl)-1-(4-methyl-4H-1,2,4-triazol-3-yl)cyclobutyl)phenyl)-7-((((R)-3,3-difluorocyclopentyl)amino)methyl)-1H-pyrrolo[3,2-b]pyridine-5-carboxamide] | 8.91 | 8.42 | 

From patent US20250163047A1, “HETEROCYCLIC COMPOUNDS, COMPOSITIONS THEREOF, AND METHODS OF TREATMENT THEREWITH” (BeiGene, Ltd., priority 2022, published 2025)
